We go through six compounds from publication PMC10254530, “Design and Synthesis of Brefeldin A-Isothiocyanate Derivatives with Selectivity and Their Potential for Cervical Cancer Therapy” (Molecules, 2023).

Structures are written as SMILES. Structures can show the parent of a compound that is named as a salt.

In data set [1] the test system is HeLa cells. As to the kind of experiment: Mitochondrial membrane potential analysis, JC-1 staining. The format is cell-based, human. The settings on record: 48 h; for JC-1 quadrant Q1-LL / JC-1 quadrant Q1-UL: control 0.00%; for JC-1 green fluorescent cells (decreased mitochondrial membrane potential), quadrant Q1-LR: control 4.07%; for JC-1 quadrant Q1-UR: control 95.93%. The protocol: Mitochondrial membrane potential was detected by the JC-1 staining method. According to the manual of JC-1 Apoptosis Detection Kit KGA601, HeLa cells in 6-well plates were collected by 0.25% trypsin without EDTA (in PBS) digestion after 48 h administration. The Incubation Buffer was prepared according to the instructions, mixing and preheating to 37 °C. 500 μL 1 × Incubation Buffer was mixed with 1 μL JC-1 (working concentration 10 μg/mL) to suspend HeLa cells and then the cells were incubated for 20 min. Cells were collected by centrifugation at room temperature, washed twice with 1 × Incubation Buffer and then detected by BD FACSVerse flow cytometer.

The next data set relates to HepG2 cells. As to the kind of experiment: CCK-8 antiproliferative assay, HepG2. Type of data set: cell-based. The settings on record: Homo sapiens, HepG2; CCK-8, 48 h, mean ± SD of three experiments; read-out: IC50 HepG2. Here is the method: (§1) All cells were cultured in Dulbecco’s Modified Eagle’s Medium (DMEM) (Burlington, MA, USA) or Roswell Park Memorial Institute (RPMI)-1640 medium containing 10% fetal bovine serum and 1% penicillin/streptomycin in an incubator at 37 °C and 5% CO2. […] Cell suspension with a concentration of 8 × 10^4 cells/mL was prepared after cell counting. 100 μL cell suspension was added to each well of the 96-well plate and then placed in an incubator overnight. Most of the derivatives were configured into 80 mM, 20 mM or 4 mM stock solution in DMSO, and the stock solution concentration of BFA and paclitaxel was 0.4 mM. […] The medium in each well was discarded, and 100 μL of gradient diluted derivative solution was added (the control group was added with serum-free medium).
(Tetrazolium assays rely on reduction of a dye to a coloured formazan, in cell work by metabolically active cells.)

For the next data set, the system named is A549 cells. The data set can be described thus: CCK-8 antiproliferative assay, A549. The format is cell-based. The conditions noted are these: Homo sapiens, A549; CCK-8, 48 h, mean ± SD of three experiments; read-out: IC50 A549. The protocol:
as §1

Data set [2] deals with HeLa cells. The data set can be described thus: Annexin V-FITC/PI apoptosis analysis, flow cytometry. Type of data set: cell-based, human. The conditions noted are these: 48 h, control 3.21%. The protocol:
According to the manual of Annexin V-FITC/PI Apoptosis Detection Kit KGA105, HeLa cells in 6-well plates were collected by 0.25% trypsin without EDTA (in PBS) digestion after 48 h administration by the above method. After washing with PBS 3 times, 500 μL Binding Buffer was added to suspend HeLa cells. Then Annexin V-FITC and PI were added successively in dark for 15 min, and HeLa cell apoptosis was detected by BD FACSVerse flow cytometer.
Background: A flow cytometer gives signals particle by particle.

Data set [3] concerns HeLa cells. The data set can be described thus: Hoechst 33258 staining assay. Type of data set: cell-based, human. The settings on record: HeLa, 0.46, 0.92 and 1.84 µM, 48 h. The protocol:
HeLa cells in 6-well plates were collected after administration. According to the manual of Apoptotic Cell Hoechst 33258 Detection Kit KGA211, HeLa cells were fixed with paraformaldehyde for 30 min. After centrifugation, HeLa cells were soaked in PBS for 5 min and washed 3 times. An appropriate amount of Hoechst 33258 staining solution (working concentration 0.5 μg/mL) was added so that fully covers the HeLa cells and then the cells were left at room temperature for 10 min. After dyeing, HeLa cells were soaked in PBS for 5 min and washed 3 times. Observation under an Olympus (Tokyo, Japan) IX73 fluorescence microscope after sealing with an anti-fluorescence quenching sealing solution (glycerol:PBS = 1:9).

The subject of the next data set is L-02 cells. The data set can be described thus: CCK-8 cytotoxicity assay, normal liver L-02. Type of data set: cell-based. The settings on record: Homo sapiens, L02; CCK-8, 48 h, normal liver cells, mean ± SD of three experiments; read-out: IC50 L-02. The protocol: as §1
Data set [4] has as its system HeLa cells. As to the kind of experiment: CCK-8 antiproliferative assay, HeLa. Type of data set: cell-based, human. The conditions noted are these: for IC50: Homo sapiens, HeLa, CCK-8, 48 h, mean ± SD of three experiments, read-out: IC50 HeLa; for SIHeLa, selectivity index between L-02 and HeLa: SI = IC50(L-02)/IC50(HeLa). The protocol: as §1
The test system of the next data set is A375 cells. As to the kind of experiment: CCK-8 antiproliferative assay, A375. The format is cell-based. The settings on record: Homo sapiens, A-375; CCK-8, 48 h, mean ± SD of three experiments; read-out: IC50 A375. Here is the method: as §1
The test system of a further data set is MDA-MB-231 cells. As to the kind of experiment: CCK-8 antiproliferative assay, MDA-MB-231. The format is cell-based. The settings on record: Homo sapiens, MDA-MB-231; CCK-8, 48 h, mean ± SD of three experiments; read-out: IC50 MDA-MB-231. The protocol:
as §1

Data set [5] concerns HeLa cells. As to the kind of experiment: Cell cycle analysis, PI staining flow cytometry. The conditions noted are these: 48 h; for cells in G1 phase: control 33.42%. The format is cell-based, human. The protocol: Cell cycle was detected by PI single staining method. Cell suspension with a concentration of 2 × 10^5 cells/mL was prepared after cell counting. 1 mL cell suspension was added to each well of the 6-well plate and then placed in an incubator overnight. The medium in each well was discarded, and 1 mL of gradient diluted derivative solution 6 (0, 0.46, 0.92 and 1.84 µM) was added (the control group was added with serum-free medium). According to the manual of Cell Cycle Detection Kit KGA511, after 48 h, HeLa cells were collected and fixed with 70% ethanol for 2 h. After centrifugation, 100 μL RNase A (working concentration 20 μg/mL) was added and placed in a 37 °C water bath for 30 min. Then 400 μL PI staining (working concentration 50 μg/mL) was added and mixed, centrifugal tube was placed in the dark at 4 °C for 30 min. Red fluorescence at the excitation wavelength of 488 nm was recorded by flow cytometry.

The next data set deals with U87 cells. Details: method as in PMID 35557894. The conditions noted are these: glioblastoma multiforme U87 cells in vitro; read-out: IC50, cytotoxic activity against U87 cells; cited from earlier work.
The test system of data set [6] is human T lymphoblastoid cell line Jurkat. Also noted: method as in PMID 22200402. The conditions noted are these: 0.5 μM; cited from earlier work.

What is called IC50 is the midpoint of a concentration-inhibition curve. `C[C@H]1CCC/C=C/[C@@H]2C[C@H](O)C[C@H]2[C@H](OC(=O)c2ccc(N=C=S)cc2)/C=C/C(=O)O1` [Compound 6, (1R,2E,6S,10E,11aS,13S,14aR)-13-Hydroxy-6-methyl-4-oxo-1,6,7,8,9,11a,12,13,14,14a-decahydro-4H-cyclopenta[f][1]oxacyclotridecin-1-yl 4-isothiocyanatobenzoate]: the “JC-1 quadrant Q1-LL” value in the data set with HeLa cells [1] (0.46 µM), in the data set with HeLa cells [1] (0.92 µM) and with HeLa cells [1] (1.84 µM) was 0.00% in each case. Further, the “JC-1 quadrant Q1-UL” value with HeLa cells [1] (0.46 µM), in the data set on HeLa cells [1] (0.92 µM) and in the data set on HeLa cells [1] (1.84 µM) was 0.00% in each case. The “JC-1 green fluorescent cells (decreased mitochondrial membrane potential), quadrant Q1-LR” value in the data set on HeLa cells [1] (0.46 µM) was determined as 13.88%; with HeLa cells [1] (0.92 µM) it was 24.80%; in the data set on HeLa cells [1] (1.84 µM) it was 39.69%. Further, the “JC-1 quadrant Q1-UR” value in the data set on HeLa cells [1] (0.46 µM) worked out at 86.12%; in the data set on HeLa cells [1] (0.92 µM) it was 75.20%; in the data set with HeLa cells [1] (1.84 µM) it was 60.31%. The concentration for half-maximal inhibition (IC50) in the data set on HepG2 cells is 20.8 ± 1.22 µM; in the data set with A549 cells, 7.18 ± 0.51 µM; with L-02 cells, over 80 µM; in the data set on HeLa cells [4] it was 1.84 ± 0.08 µM; in the data set with A375 cells, 3.08 ± 0.43 µM; with MDA-MB-231 cells, 6.83 ± 0.61 µM. Further, the “percentage of cells in the early and late stages of apoptosis” value turned out to be 16.04% with HeLa cells [2] (0.46 µM), 26.41% with HeLa cells [2] (0.92 µM) and 39.03% with HeLa cells [2] (1.84 µM). Besides, in the data set on HeLa cells [3], the “nuclear morphology, Hoechst33258 staining” value is listed as “nuclear fragmentation”. Also, the “cells in G1 phase” value in the data set with HeLa cells [5] (0.46 µM) is on record as 43.39%; in the data set on HeLa cells [5] (0.92 µM), 49.55%; in the data set with HeLa cells [5] (1.84 µM), 60.80%. Besides, the “cells in G2 phase” value in the data set on HeLa cells [5] (1.84 µM, control 22.94%) is recorded as 12.50%. Moreover, in the data set on HeLa cells [5] (1.84 µM, control 43.64%), the “cells in S phase” value is reported as 26.70%.

In the case of `C[C@H]1CCC/C=C/[C@@H]2C[C@H](O)C[C@H]2[C@H](OC(=O)/C=C\C(=O)OCCOCCOC(=O)c2ccc(N=C=S)cc2)/C=C/C(=O)O1` [Compound 9j, (1R,2E,6S,10E,11aS,13S,14aR)-13-Hydroxy-6-methyl-4-oxo-1,6,7,8,9,11a,12,13,14,14a-decahydro-4H-cyclopenta[f][1]oxacyclotridecin-1-yl (2-(2-((4-isothiocyanatobenzoyl)oxy)ethoxy)ethyl) maleate], the IC50 came to 3.69 ± 0.14 µM in the data set with HepG2 cells; 4.61 ± 0.12 µM in the data set with A549 cells; 10.8 ± 0.57 µM in the data set on L-02 cells; 1.71 ± 0.02 µM with HeLa cells [4]; 1.5 ± 0.05 µM in the data set on A375 cells; 2.27 ± 0.03 µM in the data set with MDA-MB-231 cells. In the data set on HeLa cells [4], the “SIHeLa, selectivity index between L-02 and HeLa” value was 6.29.

For `C[C@H]1CCC/C=C/[C@@H]2C[C@H](O)C[C@H]2[C@H](OC(=O)/C=C\C(=O)OCCCCCCOC(=O)c2ccc(N=C=S)cc2)/C=C/C(=O)O1` [Compound 9k, (1R,2E,6S,10E,11aS,13S,14aR)-13-Hydroxy-6-methyl-4-oxo-1,6,7,8,9,11a,12,13,14,14a-decahydro-4H-cyclopenta[f][1]oxacyclotridecin-1-yl (6-((4-isothiocyanatobenzoyl)oxy)hexyl) maleate], the IC50 in the data set on HepG2 cells was 3.28 ± 0.27 µM; in the data set with A549 cells it was 8.34 ± 0.24 µM; in the data set with L-02 cells it was 23.9 ± 1.23 µM; with HeLa cells [4] it was 2.39 ± 0.1 µM; with A375 cells, 7.27 ± 0.57 µM; with MDA-MB-231 cells it was 2.61 ± 0.08 µM.

For the compound `C[C@@H]1CCC2[C@@H](C)[C@@H](OCCCN=C=S)O[C@@H]3O[C@@]4(C)CCC1[C@@]23OO4` (stereo partly shown) [compound B], the 50% inhibitory concentration (IC50) in the data set with U87 cells was 7.41 µM.

Turning to `O=C1c2ccc3c4c(ccc(c24)C(=O)N1CCCN=C=S)C(=O)N(CCCN=C=S)C3=O` [derivative A], the “effect on apoptosis in Jurkat cells” value in data set [6] is on record as “induced apoptosis by activating caspase-8”.

Regarding `CC(=O)O[C@H]1C(=O)[C@@]2(C)[C@H]([C@H](OC(=O)c3ccccc3)[C@]3(O)C[C@H](OC(=O)[C@H](O)[C@@H](NC(=O)c4ccccc4)c4ccccc4)C(C)=C1C3(C)C)[C@]1(OC(C)=O)CO[C@@H]1C[C@@H]2O` [paclitaxel, reference compound], the IC50 with HepG2 cells was found to be 0.55 ± 0.03 µM; with A549 cells, 0.014 ± 0.002 µM; in the data set with L-02 cells it was 0.13 µM; in the data set on HeLa cells [4], 0.034 ± 0.002 µM; in the data set with A375 cells, 0.059 ± 0.001 µM; with MDA-MB-231 cells, 0.33 ± 0.03 µM. Also, the “SIHeLa, selectivity index between L-02 and HeLa” value in the data set with HeLa cells [4] was determined as 3.82.
